Key:
CYP3A4 = CYP3A4 (Homo sapiens, UniProt P08684); test: Cytochrome P450 (CYP450) Inhibition Assay, CYP3A4 (Vivid fluorescence, BOMCC substrate); settings: human, P450 Baculosomes (recombinant CYP3A4), probe BOMCC (Vivid substrate)
Sequence of CYP3A4 (P08684 whole entry): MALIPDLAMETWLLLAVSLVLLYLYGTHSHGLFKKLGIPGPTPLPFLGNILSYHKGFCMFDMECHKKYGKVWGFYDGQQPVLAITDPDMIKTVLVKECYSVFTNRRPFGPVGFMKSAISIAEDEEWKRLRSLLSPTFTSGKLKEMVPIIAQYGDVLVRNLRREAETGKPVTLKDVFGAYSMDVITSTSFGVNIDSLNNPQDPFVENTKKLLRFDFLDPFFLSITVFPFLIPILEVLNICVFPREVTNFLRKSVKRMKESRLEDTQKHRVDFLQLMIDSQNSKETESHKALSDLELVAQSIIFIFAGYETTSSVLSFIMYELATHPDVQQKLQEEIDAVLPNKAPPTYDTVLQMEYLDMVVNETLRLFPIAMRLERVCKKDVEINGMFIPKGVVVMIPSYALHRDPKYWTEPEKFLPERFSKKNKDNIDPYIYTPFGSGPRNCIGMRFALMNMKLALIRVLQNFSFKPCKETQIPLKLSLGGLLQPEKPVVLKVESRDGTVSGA

inhibition at 10 µM (CYP3A4) [%] | melting point [°C] | Compound
< 50 | 266 to 268 | CN1C(=O)C2(COc3cc4c(cc32)OCCO4)c2c(NC(=O)C3CC3)cccc21 (centres unmarked) [Example 16.26, N-(1′-methyl-2′-oxo-1′,2,2′,3-tetrahydrospiro[furo[2,3-g][1,4]benzodioxine-8,3′-indol]-4′-yl)cyclopropanecarboxamide]
< 50 | 149 to 150 | CN1C(=O)C2(COc3cc4c(cc32)OCCO4)c2c(C(=O)NCc3ccc(F)cc3)cccc21 (centres unmarked) [Example 16.44, N-(4-fluorobenzyl)-1′-methyl-2′-oxo-1′,2,2′,3-tetrahydrospiro[furo[2,3-g][1,4]benzodioxine-8,3′-indole]-4′-carboxamide]
> 50 | 167 to 168 | O=C1N(Cc2cc3ccccc3o2)c2ccccc2C12COc1cc3c(cc12)OCO3 (centres unmarked) [Example 1.8, 1′-(1-benzofuran-2-ylmethyl)spiro[furo[2,3-f][1,3]-benzodioxole-7,3′-indol]-2′(1′H)-one]
< 50 | 109 to 110 | COCCOCCOc1cccc2c1C1(COc3cc4c(cc31)OCCO4)C(=O)N2C (centres unmarked) [Example 16.54, 4′-[2-(2-methoxyethoxy)ethoxy]-1′-methyl-2,3-dihydrospiro[furo[2,3-g][1,4]benzodioxine-8,3′-indol]-2′(1′H)-one]
< 50 | 182 to 183 | CCCCC(=O)Nc1cccc2c1C1(COc3cc4c(cc31)OCCO4)C(=O)N2C (centres unmarked) [Example 16.30, N-(1′-methyl-2′-oxo-1′,2,2′,3-tetrahydrospiro[furo[2,3-g][1,4]benzodioxine-8,3′-indol]-4′-yl)pentanamide]
> 50 | 172 to 173 | CCCCCCNC(=O)c1cccc2c1C1(COc3cc4c(cc31)OCCO4)C(=O)N2C (centres unmarked) [Example 16.45, N-hexyl-1′-methyl-2′-oxo-1′,2,2′,3-tetrahydrospiro[furo[2,3-g][1,4]benzodioxine-8,3′-indole]-4′-carboxamide]
< 50 | 184 to 186 | CN1C(=O)C2(COc3cc4c(cc32)OCCO4)c2c(NS(C)(=O)=O)cccc21 (centres unmarked) [Example 16.22, N-(1′-methyl-2′-oxo-1′,2,2′,3-tetrahydrospiro[furo[2,3-g][1,4]benzodioxine-8,3′-indol]-4′-yl)methanesulfonamide]
< 50 | 214 to 215 | CN1C(=O)C2(COc3cc4c(cc32)OCCO4)c2c(C(=O)NCc3ccccn3)cccc21 (centres unmarked) [Example 16.46, 1′-methyl-2′-oxo-N-(pyridin-2-ylmethyl)-1′,2,2′,3-tetrahydrospiro[furo[2,3-g][1,4]benzodioxine-8,3′-indole]-4′-carboxamide]
< 50 | 256 to 258 | CN1C(=O)C2(COc3cc4c(cc32)OCCO4)c2c1cccc2N1CCCC1=O (centres unmarked) [Example 16.16, 1′-methyl-4′-(2-oxopyrrolidin-1-yl)-2,3-dihydrospiro[furo[2,3-g][1,4]benzodioxine-8,3′-indol]-2′(1′H)-one]
< 50 | 175 to 177 | CN1C(=O)C2(COc3cc4c(cc32)OCCO4)c2c(NC(=O)NC3CCCCC3)cccc21 (centres unmarked) [Example 16.37, 1-cyclohexyl-3-(1′-methyl-2′-oxo-1′,2,2′,3-tetrahydrospiro[furo[2,3-g][1,4]benzodioxine-8,3′-indol]-4′-yl)urea]
> 50 | 226 to 228 | CN1C(=O)[C@@]2(COc3cc4c(cc32)OCO4)c2c(Br)cccc21 [Example 16.63, (7R)-4′-bromo-1′-methylspiro[furo[2,3-f][1,3]benzodioxole-7,3′-indol]-2′(1′H)-one]
< 50 | 133 to 135 | CN1C(=O)C2(COc3cc4c(cc32)OCCO4)c2c(NC(=O)NC3CCCC3)cccc21 (centres unmarked) [Example 16.36, 1-cyclopentyl-3-(1′-methyl-2′-oxo-1′,2,2′,3-tetrahydrospiro[furo[2,3-g][1,4]benzodioxine-8,3′-indol]-4′-yl)urea]
< 50 | 212 to 214 | CN1C(=O)C2(COc3cc4c(cc32)OCCO4)c2c1cccc2-n1ccccc1=O (centres unmarked) [Example 16.18, 1′-methyl-4′-(2-oxopyridin-1(2H)-yl)-2,3-dihydrospiro[furo[2,3-g][1,4]benzodioxine-8,3′-indol]-2′(1′H)-one]
< 50 | 297 to 299 | CN1C(=O)C2(COc3cc4c(cc32)OCCO4)c2c(C(=O)O)cccc21 (centres unmarked) [Example 11.77, 1′-methyl-2′-oxo-1′,2,2′,3-tetrahydrospiro[furo[2,3-g][1,4]benzodioxine-8,3′-indole]-4′-carboxylic acid]
< 50 | 135 to 136 | CN1C(=O)C2(COc3cc4c(cc32)OCCO4)c2c(C(=O)NC3CCCC3)cccc21 (centres unmarked) [Example 16.39, N-cyclopentyl-1′-methyl-2′-oxo-1′,2,2′,3-tetrahydrospiro[furo[2,3-g][1,4]benzodioxine-8,3′-indole]-4′-carboxamide]
> 50 | > 250 | CN1C(=O)C2(COc3cc4c(cc32)OCCO4)c2c(Oc3ncccc3C(F)(F)F)cccc21 (centres unmarked) [Example 16.55, 1′-methyl-4′-{[3-(trifluoromethyl)pyridin-2-yl]oxy}-2,3-dihydrospiro[furo[2,3-g][1,4]benzodioxine-8,3′-indol]-2′(1′H)-one]
< 50 | 196 to 198 | CN1C(=O)C2(COc3cc4c(cc32)OCCO4)c2c(NC(=O)C3CCCC3)cccc21 (centres unmarked) [Example 16.24, N-(1′-methyl-2′-oxo-1′,2,2′,3-tetrahydrospiro[furo[2,3-g][1,4]benzodioxine-8,3′-indol]-4′-yl)cyclopentanecarboxamide]
> 50 | 228 to 230 | Cc1noc(C)c1-c1cccc2c1C1(COc3cc4c(cc31)OCCO4)C(=O)N2C (centres unmarked) [Example 16.75, 4′-(3,5-dimethylisoxazol-4-yl)-1′-methyl-2,3-dihydrospiro[furo[2,3-g][1,4]benzodioxine-8,3′-indol]-2′(1′H)-one]
< 50 | 246 to 249 | CN1C(=O)C2(COc3cc4c(cc32)OCCO4)c2c(N3CCOCC3)cccc21 (centres unmarked) [Example 16.17, 1′-methyl-4′-morpholin-4-yl-2,3-dihydrospiro[furo[2,3-g][1,4]benzodioxine-8,3′-indol]-2′(1′H)-one]
< 50 | 96 to 98 | CN1C(=O)C2(COc3cc4c(cc32)OCCO4)c2c(NC(=O)C3CCCCC3)cccc21 (centres unmarked) [Example 16.23, N-(1′-methyl-2′-oxo-1′,2,2′,3-tetrahydrospiro[furo[2,3-g][1,4]benzodioxine-8,3′-indol]-4′-yl)cyclohexanecarboxamide]
< 50 | 199 to 201 | Cc1nc(-c2cccc3c2C2(COc4cc5c(cc42)OCCO5)C(=O)N3C)no1 (centres unmarked) [Example 16.74, 1′-methyl-4′-(5-methyl-1,2,4-oxadiazol-3-yl)-2,3-dihydrospiro[furo[2,3-g][1,4]benzodioxine-8,3′-indol]-2′(1′H)-one]
< 50 | 182 to 184 | CN1C(=O)C2(COc3cc4c(cc32)OCCO4)c2c(NC(=O)C(C)(C)C)cccc21 (centres unmarked) [Example 16.31, 2,2-dimethyl-N-(1′-methyl-2′-oxo-1′,2,2′,3-tetrahydrospiro[furo[2,3-g][1,4]benzodioxine-8,3′-indol]-4′-yl)propanamide]
< 50 | 248 to 249 | COc1ncc(CN2C(=O)C3(COc4cc5c(cc43)OCCO5)c3ccccc32)cn1 (centres unmarked) [Example 5.14, 1′-[(2-methoxypyrimidin-5-yl)methyl]-2,3-dihydrospiro[furo[2,3-g][1,4]benzodioxine-8,3′-indol]-2′(1′H)-one]
> 50 | 226 to 227 | CN1C(=O)[C@]2(COc3cc4c(cc32)OCO4)c2c(Br)cccc21 [Example 16.64, (7S)-4′-bromo-1′-methylspiro[furo[2,3-f][1,3]benzodioxole-7,3′-indol]-2′(1′H)-one]
> 50 | 229 to 231 | O=C1Nc2cccc(-c3ccoc3)c2[C@@]12COc1cc3c(cc12)OCO3 [Example 16.66, (7R)-4′-furan-3-ylspiro[furo[2,3-f][1,3]benzodioxole-7,3′-indol]-2′(1′H)-one]
< 50 | 230 to 232 | O=C1N(Cc2nccnc2C(F)(F)F)c2ccccc2C12COc1cc3c(cc12)OCCO3 (centres unmarked) [Example 5.11, 1′-{[3-(trifluoromethyl)pyrazin-2-yl]methyl}-2,3-dihydrospiro[furo[2,3-g][1,4]benzodioxine-8,3′-indol]-2′(1′H)-one]
– | 137 to 139 | Cc1ccc2c(c1)C1(COc3cc4c(cc31)OCCO4)C(=O)N2Cc1ncccc1C(F)(F)F (centres unmarked) [Example 4.115, 5′-methyl-1′-{[3-(trifluoromethyl)pyridin-2-yl]methyl}-2,3-dihydrospiro[furo[2,3-g][1,4]benzodioxine-8,3′-indol]-2′(1′H)-one]
– | 111 to 113 | CCCCCN1C(=O)[C@@]2(COc3cc4c(cc32)OCCO4)c2ccccc21 [Example 7.3, (S)-1-pentyl-2,3-dihydrospiro[furo[2,3-g][1,4]benzodioxine-8,3′-indol]-2′(1′H)-one]
– | 81 to 82 | Cc1ccc(F)c2c1N(C(c1ccccc1)c1ccccc1)C(=O)C21COc2cc3c(cc21)CCO3 (centres unmarked) [Example 2.19, 1′-(diphenylmethyl)-4′-fluoro-7′-methyl-5,6-dihydrospiro[benzo[1,2-b:5,4-b′]difuran-3,3′-indol]-2′(1′H)-one]
– | 165 to 168 | O=C1N(C(c2ccccc2)c2ccccc2)c2ccccc2C12COc1cc3c(cc12)OCCCO3 (centres unmarked) [Example 2.13, 1′-(diphenylmethyl)-3,4-dihydro-2H-spiro[furo[2,3-h][1,5]benzodioxepine-9,3′-indol]-2′(1′H)-one]

Source: patent US8263606B2 (Xenon Pharmaceuticals Inc., priority 2008, dated 2012)
